Where “and” joins values, the source holds several entries; their conditions need not be identical. Equal values may be shown once.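 How tested: cells in 96-well plates exposed to compound for 48 hours at five concentrations. GI50 marks 50% less growth. TGI denotes the concentration required for complete inhibition of growth.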

Experiment in all cases: DTP human tumour cell line panel, 48 h
Test [1] concerns UO-31 renal.
The test system of test [2] is MDA-MB-231 breast.
For test [3], the system named is K-562 leukemia.
Test [4] deals with SF-295 CNS.
The subject of test [5] is EKVX NSCLC.
In test [6] the test system is KM12 colon.
The subject of test [7] is NCI/ADR-RES ovarian.
The subject of test [8] is PC-3 prostate.
The test system of test [9] is CAKI-1 renal.
For test [10], the system named is SK-OV-3 ovarian.

For `Cc1cc2cc3c(=O)[nH]c(=O)[nH]c3nc2cc1C`, the total growth inhibition concentration (TGI) in test [1], in [2], in [3], in test [4], in [5] and in [6] was > 100 µM throughout. Further, the concentration for total growth inhibition (TGI) in [7], in [8], in test [9] and in [10] was > 100 µM throughout.
On to `COC12C(COC(N)=O)C3=C(C(=O)C(C)=C(N)C3=O)N1CC1C2N1C` (centres undefined), for which the concentration for total growth inhibition (TGI) in test [1] was determined as 32.6 µM; in test [2], 115 µM; in [3] it was 179 µM; in test [4] it was 18.1 µM; in [5], 60.3 µM; in test [6], 43.7 µM. Further, the TGI in test [7] was determined as 268 µM; in test [8], 61.6 µM; in [9], 22 µM; in test [10], 49 µM.
Turning to `BrCc1cccc(C[P+](c2ccccc2)(c2ccccc2)c2ccccc2)c1`, the GI50 was > 100 µM in test [1]; 33 µM in test [2]; 4.26 µM in test [3]; 35.5 µM in test [4]; 18.1 µM in test [5]; 16 µM in test [6]. Also, the GI50 in test [7] is > 100 µM; in test [8], 6.26 µM; in test [9], > 100 µM; in test [10], 70.1 µM. Moreover, the concentration for total growth inhibition (TGI) in test [1], in [2], in test [3], in test [4], in test [5] and in test [6] was > 100 µM throughout. For the same compound, the TGI in test [7], in [8], in test [9] and in test [10] was > 100 µM in each case.
Take `CSc1nc(NC2OC(COC(C)=O)C(OC(C)=O)C(OC(C)=O)C2OC(C)=O)c(N=CC=Nc2c(NC3OC(COC(C)=O)C(OC(C)=O)C(OC(C)=O)C3OC(C)=O)nc(SC)n(C)c2=O)c(=O)n1C` (centres undefined): the GI50 is > 50 µM in [1]; 25.2 µM in test [2]; > 50 µM in [3]; > 50 µM in test [4]; > 50 µM in test [5]; > 50 µM in test [6]. In addition, the GI50 in [7], in test [8], in [9] and in test [10] was > 50 µM each time. For the same compound, the total growth inhibition concentration (TGI) in test [1] was > 100 µM; in test [2], 50 µM and > 100 µM; in test [3], > 100 µM; in [4], > 50 µM and 98.8 µM; in test [5] it was > 100 µM; in [6] it was > 100 µM. Moreover, the TGI in test [7] was > 100 µM; in [8] it was > 100 µM; in [9] it was > 100 µM; in test [10] it was > 50 µM and 80.1 µM.
As for `Oc1ccc(Nc2c3ccccc3nc3occ(Cl)c23)cc1`, the GI50 in test [1] was 5.61 µM; in [2] it was 2.43 µM; in test [3], 2.24 µM; in test [4], 4.65 µM; in test [5], 14.8 µM; in [6], 2.78 µM. Also, the GI50 is 2.69 µM in [7], 2.71 µM in test [8], 3.95 µM in [9] and 4.77 µM in [10]. Also, the TGI in [1] is 24.4 µM; in test [2], 7.39 µM; in test [3], 53.1 µM; in test [4], > 100 µM; in test [5], > 100 µM; in [6], 17 µM. Further, the TGI in test [7] was 18.2 µM; in test [8], 20.3 µM; in test [9], > 100 µM; in test [10] it was > 100 µM.
With `CN(C)C(=S)Sc1ccc([N+](=O)[O-])cc1[N+](=O)[O-]`, the GI50 is 1.79 µM in test [1]; 3.04 µM in test [2]; 1.06 µM in test [3]; 14.5 µM in test [4]; 5.29 µM in test [5]; 2.81 µM in test [6]. Also, the GI50 in test [7] is 4.73 µM; in [8], 2.17 µM; in test [9] it was 1.58 µM; in test [10] it was 12 µM. Besides, the TGI in [1] turned out to be 6.29 µM; in test [2], 11.9 µM; in test [3], 25.6 µM; in test [4], 29 µM; in [5] it was 19.7 µM; in [6] it was 12.7 µM. In addition, the TGI in [7] came out at 16.8 µM; in [8] it was 13.3 µM; in test [9] it was 4.79 µM; in test [10] it was 31.2 µM.
Regarding `CCc1ccc(/C=C/c2ccc(O)c3ncccc23)[n+](C)c1`, the GI50 was 7.4 µM in test [1]; 57.9 µM in test [2]; 0.517 µM in [3]; 1.88 µM in [4]; 0.777 µM in test [5]; 0.512 µM in [6]. The GI50 in test [7] is > 100 µM; in test [8], 6.09 µM; in [9], 39.2 µM; in test [10], 26.9 µM. Besides, the total growth inhibition concentration (TGI) in [1], in test [2], in test [3], in test [4], in [5] and in test [6] was > 100 µM throughout. Also, the TGI in test [7], in test [8], in test [9] and in test [10] was > 100 µM throughout.
As to `O=C1c2cccc3cccc(c23)C(=O)N1CCCCCN1CCN(CCCCCOc2ccc(-c3nc4ccc(N5CCOCC5)cc4[nH]3)cc2)CC1`, the GI50 in [1] was 3.47 µM; in test [2] it was 12.6 µM; in test [3], 0.135 µM; in [4], 8.04 µM; in test [5], > 47.1 µM; in test [6], 2.15 µM. Also, the GI50 is 8.7 µM in test [7], 2.77 µM in [8], > 45.6 µM in test [9] and > 100 µM in test [10]. In addition, the TGI in test [1] is 34.7 µM; in test [2] it was > 20.4 µM; in [4], 25.4 µM; in [5] it was > 74.6 µM; in [6], 4.29 µM; in test [7] it was > 60.2 µM. Besides, the figures for the concentration for total growth inhibition (TGI) in test [8], in [9] and in test [10] were 17.6 µM, > 70.6 µM and > 100 µM, respectively.
`O=C(NNc1ccccc1)C(=O)NNc1ccccc1`: the GI50 is > 100 µM in test [1]; 24.1 µM in test [2]; 0.396 µM in [3]; 2.1 µM in [4]; > 100 µM in test [5]; 0.535 µM in test [6]. Also, the GI50 in test [7] was > 100 µM; in test [8], > 100 µM; in test [9], 0.795 µM; in test [10], > 100 µM. Moreover, the concentration for total growth inhibition (TGI) in [1], in [2], in test [3], in test [4], in test [5] and in [6] was > 100 µM in each case. Also, the TGI in test [7], in [8], in test [9] and in test [10] was > 100 µM in each case.
Take `Cc1ccc(Nc2oc(-c3ccccc3)nc2[P+](c2ccccc2)(c2ccccc2)c2ccccc2)cc1`: the GI50 in test [1] is 0.44 µM; in [2], 0.788 µM; in test [3], 0.324 µM; in test [4] it was 1.24 µM; in [5], 0.616 µM; in test [6], 0.861 µM. Also, the GI50 in test [7] was 1.48 µM; in test [8], 0.585 µM; in test [9], 1.22 µM; in test [10], 1.58 µM. Moreover, the concentration for total growth inhibition (TGI) in test [1] came out at 1.65 µM; in [2], 2.17 µM; in test [3] it was 1.44 µM; in [4] it was 2.6 µM; in test [5] it was 2.38 µM; in [6], 2.46 µM. The TGI in test [7] worked out at 3.1 µM; in test [8], 2.01 µM; in test [9], 2.72 µM; in [10], 3.69 µM.
As to `CN(C)C/C=C/C(=O)Nc1cc2c(Nc3ccc(F)c(Cl)c3)ncnc2cc1O[C@H]1CCOC1`, the GI50 in test [1] was 0.762 µM and 0.322 µM; in test [2], 1.2 µM and 0.806 µM; in [3], 3.17 µM and 1.97 µM; in test [4], 4.93 µM and 3.32 µM; in [5], < 0.01 µM and 0.003 µM; in test [6], 1.25 µM and 1.99 µM. Besides, the GI50 was 2.27 µM and 1.92 µM in test [7]; 3.19 µM and 3.26 µM in test [8]; 0.0407 µM and 0.208 µM in test [9]; < 0.01 µM and 0.00185 µM in test [10]. The TGI is 16.4 µM and > 10 µM in [1]; 7.06 µM and 4.75 µM in test [2]; 14.1 µM and > 10 µM in [3]; 20.9 µM and > 10 µM in [4]; 11.3 µM and > 10 µM in [5]; 11.3 µM and > 10 µM in test [6]. The TGI in test [7] was 14.8 µM and > 10 µM; in test [8], 12.8 µM and > 10 µM; in [9], 8.39 µM and > 10 µM; in [10] it was 0.322 µM and 0.327 µM.

What is called TGI is the concentration at which net growth stops. A high value points to less potent growth arrest. As a reminder, the GI50 is the concentration at which growth is held to half of that of the control.

For the origin of these results see PubChem BioAssay (NCI).
